This is an account of results in patent US20230181553A1, “COMPOSITION FOR HAIR IMPROVEMENT” (Dr. Cherry Inc., priority 2020, published 2023).

In assay [1] the test system is white hair. Description: Change in white hair (trichogram) after oral pioglitazone. Format: in vivo, human. Conditions: oral 15 mg once every day for 6 months. The protocol: As pioglitazone, a 15 mg pioglitazone tablet “NP” was used. Each patient took one tablet containing 15 mg of pioglitazone around 10 o'clock in the morning once every day. Subjects were four patients ([…]). In each of the patients, lines were extended from both outer canthi toward the head, two points on these lines crossing a line extended between the both ears through the vertex were tattooed with an India ink, and a portion around the marked center was photographed under the same conditions. The patient had no white hair in a specific portion at the start, a temporal portion on the line extending between the both ears was tattooed with an Indian ink, and a portion around the marked center was photographed under the same conditions. Pioglitazone was taken continuously for 6 months, and the same test was performed every two months. For trichogram, a portion around the marked center was photographed (Canon Powder Shot […], Tokyo, Japan), and hair within a circle having a diameter of 11 mm (area: 95 mm^2) around the tattooed portion set as a center in an imaging range was photographed in two directions, and the number was visually counted to obtain an average of the two photographs.

Assay [2] deals with hair thinning. The experiment in a line: Scalp improvement effect in nine regions in androgenetic alopecia patients (rating of hair growth effect). Format: in vivo, human. Conditions: four AGA male patients, oral 5 mg once a day, 2 months. From the text: In this example, the scalp was divided into nine regions to observe the effect of the treatment therein. In this manner, even when each patient has both a good portion (portion having a large hair volume) and a poor portion (portion having a small hair volume), influence on the good portion and influence on the poor portion can be separately evaluated, and thus, it can be expected that highly accurate evaluation can be realized. Subjects were four androgenetic alopecia (AGA) male patients (of 42 to 63 years old) having aggravated as compared with a state 1 year ago. Two patients out of these patients had continuously taken Finasteride, an anti-androgen agent, respectively from 4 years ago and 7 years ago, and continuously took it after starting the following treatment. In this example, pioglitazone, that is a PPARγ agonist, was orally administered to these patients. […] A photograph of each patient taken from directly above 10 to 12 months before starting the treatment of this example, a photograph taken on the day of starting the treatment, and a photograph taken after 2 months from the start of the treatment were evaluated. […] A hair growth effect was evaluated by the 5 medical specialists in accordance with the following rating. […]

For assay [3], the system named is scalp. The experiment in a line: Change in hair thickness after application of pioglitazone suspension to half side of the scalp with electroporation. Type of assay: in vivo, human. The method, then:
As pioglitazone, a 15 mg pioglitazone tablet “NP” was used. One pioglitazone tablet was ground in a mortar, and the resultant was suspended in 3 mL of water for injection PL “FUSO” for use. Subjects were three female patients (patients). In each of the patients, lines were extended from both outer canthi toward the head, two points on these lines crossing a line extended between the both ears through the vertex were tattooed with an India ink, and a portion around the marked center was photographed under the same conditions. A suspension of pioglitazone was applied to the entire of half side of the scalp. In order to increase penetration, pioglitazone was caused to penetrate through the skin with META-TDS, Electroporation Machine (CTP-802, Grand Aespio Inc., Korea) at an output of 3 V/6 mA {actually measured value}. This treatment was performed at a frequency of once every two weeks 12 times (namely, for 6 months). The test sites were away from the midline of the head by 51 mm on average on both left and right sides. After 6 months from the start of the treatment (after performing the treatment 12 times), Dermo Prime, dpharris (CHOWIS, Korea) was used to import data of two images of each test site into a computer as digital images, and in each image, three hairs having the largest thickness (6 hairs in two images of each test site) were selected to automatically measure the thickness. An average value of the tested values (hair thickness: mm) was used for graphing. Specifically, assuming that the thickness before the treatment was 100, the thickness after the treatment was indicated as a rate. Regarding a patient group in which the treatment was performed on a half side, a difference between before and after the treatment and a difference between the left and right-side portions were compared.

Assay [4] has as its system PPARγ. The arrangement: species or system Wistar Rat. The conditions noted are these: rat, in vivo.
Description: Next, change in gene expression in a tissue was checked. As a subject, 12 weeks old Wistar Rat (male) was used. Regarding a 2.5 µg/portion administration group, three regions were set on the back from the head to the tail, and each of these regions was divided into two regions on both left and right sides of the spine to set six regions on the back in total. In such an administration group, PG was administered to two portions around the center of each of the six regions. Specifically, in the 2.5 µg/portion administration group (n = 3), 2.5 µg (20 µL) of PG was administered per portion. Besides, regarding a 0.1 µg/portion administration group and a 0.02 µg/portion administration group, two regions were set from the head to the tail, and each of these regions was divided into two regions on both left and right sides of the spine, and thus, four regions in total were set on the back. […]
The collected tissue piece was frozen with liquid nitrogen, and stored at -80° C. […] For gene expression analysis by quantitative PCR, design and synthesis of a gene specific primer and a probe were entrusted to Integrated DNA Technologies, Inc. (Skokie, IL, USA), and an expression level of a target gene was analyzed with Prime Time Gene Expression Master Mix reagent (Integrated DNA Technologies, Inc., Skokie, IL, USA) and a Rotor-Gene Q PCR device (QIAGEN GmbH, Hilden, Germany). […]
Assay [5] relates to hair cuticle. Description: Hair quality evaluation of hair cuticle by scanning electron microscope. Format: in vivo, human. The source says: The hair of the group administered with PG (administered twice a month) of Example 3 was collected, and in consideration of the growing rate (15 mm/month) of the hair of the patient, a portion corresponding to a period 2 months to 3 months (about 2.5 months) before the treatment and a portion corresponding to a period 4 months to 5 months (about 4.5 months) after starting the treatment were collected to be hermetically stored respectively in Ziploc(R). Thereafter, hair of a test site was adhesively fixed on a fixing plate with a resin. The resultant was hermetically stored, and on test day, was subjected to carbon fixation, and a state of hair cuticle was observed by an ordinary method with a scanning electron microscope on the same day. As a negative control, hair of the same patient in a portion not treated (untreated in the half side treatment) was used. Then, a portion of the hair newly grown (on the root side) and an existing portion (on the tip side) were compared with each other. A representative example is illustrated in FIG. 2. The same evaluation was performed on a larger number of patients (three patients[…]) (15 mg of PG, administered twice a month, administration 12 times in total, 6 months). The evaluation was performed 20 days after the final administration based on an electron microscope image in accordance with the following rating. The evaluation was performed by 6 doctors. An average of ratings was obtained. 5: Cuticle is aligned, and is not rough at all. 4: Cuticle is aligned than average, but is slightly rough. 3: Cuticle is aligned averagely. 2: Cuticle is rough than average, and is slightly peeled. […] Cuticle is rough as a whole, and is peeled as a whole.

[6] abbreviates: treated side relative to untreated side.

`CCc1ccc(CCOc2ccc(CC3SC(=O)NC3=O)cc2)nc1` (centres unmarked) [pioglitazone]: in assay [1] (n = 3), the “decrease in number of white hairs, number before administration assumed 100” value turned out to be 23.2% and the “decrease of white hair, average” value came to 12.7 hairs/95 mm^2. Further, in assay [1] (three patients having white hair before the treatment), the “change in white hair in shaved portion” value was “the white hair was decreased”. For the same compound, in assay [2], the “hair thinning in a site having a high degree of aggravation” value is on record as “trends toward improvement were observed”. Also, in assay [2] (rating by 5 medical specialists, FIG. 7B), the “progress of hair thinning” value was “the progress of hair thinning was at least stopped”. Moreover, in assay [3] (15 mg tablet suspended in 3 mL water, half side of scalp, once every two weeks 12 times, 1 month to 6 months after treatment, three female patients), the “hair thickness on treated side compared with negative control” value is “increased in the thickness”. The “change rate of hair thickness on treated side vs change rate in negative control” value in assay [3] (half side treatment, 6 months, FIG. 1 lower panel) is “higher than the change rate obtained in the negative control”. In addition, in assay [3] (modification of the scalp with pioglitazone), the “growing rate of hair (particularly anagen-stage hair)” value is on record as “improvement of a growing rate of hair”. Also, the “expression of PPARγ” value in assay [4] was “found to increase”. Besides, in assay [5] (Treated Side, rating 1-5 (5: cuticle aligned, not rough at all), average of 6 doctors, three patients, 15 mg PG twice a month, 12 times, 20 days after final administration), the “hair quality rating, Root” value is given as 3.7. Further, in assay [5] (Treated Side, rating 1-5, average of 6 doctors, three patients, 15 mg PG twice a month, 12 times, 20 days after final administration), the “hair quality rating, Tip” value came to 2.6. Also, the “state of hair cuticle, newly grown portion (root side) vs tip side” value in assay [5] (treated hair, PG twice a month, representative example FIG. 2) was “the hair quality was obviously improved”. Further, in assay [5] (setting [6]), the “Degree of Improvement, Root” value is 1.12 and the “Degree of Improvement, Tip” value is 1.0.
